Assays:
[1] = OVX rats; 200 mg/kg/day CaEDTA intraperitoneal; weighed weekly
Description: The temperature inside the chambers was 22° C. (±2) with relative humidity from 40 to 60%.
The rats were weighed and euthanized with carbon dioxide.

[2] = broad-spectrum divalent-cation chelator; cited from earlier work

For `O=C(O)CN(CCN(CC(=O)O)CC(=O)O)CC(=O)O.[Ca]` [CaEDTA, Calcium ethylenediaminetetra-acetic acid], the “Effect on body weight” value [1] is given as “no effect on body weight” and the “Affinity for zinc relative to calcium” value [2] is given as “binds zinc with higher affinity than Calcium”.
